Data taken from patent US20080153792A1, “Drug Identification and Treatment Method” (priority 2006, published 2008).

How the values were obtained:
[1] = test system: 8 week old db/db diabetic mice; experiment: hyperinsulinemic-euglycemic clamp in db/db mice; format: in vivo, mouse
Procedure: Glucose lowering in 8 week old db/db diabetic mice. The hyperinsulinemic-euglycemic clamp protocol was conducted to measure insulin sensitivity in vivo. In this procedure, insulin was administered to raise the insulin concentration while glucose was infused to maintain euglycemia or a fixed, normal blood glucose level (about 180 mg/dL). […] The objective of this protocol was to investigate characterize the capacity of 17α-ethynylandrost-5-ene-3β,7β,17β-triol and androst-5-ene-3β,7β,16α,17β-tetrol to ameliorate systemic insulin resistance and improve whole body glucose disposal in the hyperinsulinemic-euglycemic clamp model. The degree of skeletal muscle and hepatic insulin sensitivity and tissue specific glucose uptake were also assessed. The animals were dosed daily by oral gavage for 14 days. On Day 10 of treatment catheters were implanted in the carotid artery and jugular vein. On the day of the clamp (day 14) the compound was administered at 7:30 am.
Body weight and glucose concentration were assessed on day 0, 7 and day 14 of treatment. On day 14 a euglycemic hyperinsulinemic clamp was performed. […] Plasma ^14C 2-deoxyglucose was assessed at 122, 125, 130, 135, 145 min. […]
Analysis was conducted as follows. Plasma samples were deproteinized with Ba(OH)2 (0.3 N) and ZnSO4 (0.3 N), dried and radioactivity was assessed on scintillation counter (Packard TRICARB 2900 TR, Meriden, Conn.). […] One supernatant was directly counted to determine radioactivity from both [14C] […] A second aliquot was treated with Ba(OH)2 and ZnSO4 to remove ^14C DGP and any tracer incorporated into glycogen and then counted to determine radioactivity from free [^14C]DG(2). [^14C]DGP was calculated as the difference between the two aliquots. […] Rg, an index of tissue specific glucose uptake was calculated as previously described (E. W. Kraegen et al., Am. J. Physiol., 248:E353-E362, 1985). Whole body glucose turnover was calculated as the ratio of the ^3H glucose infusion rate (dpm/kg/min) and arterial plasma glucose specific activity (dpm/mg). […]

MG-63 cells = experiment: reversal of glucocorticoid effects in MG-63 osteosarcoma cells; format: cell-based, human; conditions: 0.1 μM compound
androgen receptor = androgen receptor (Homo sapiens, UniProt P10275); experiment: interaction with androgen receptor
Sequence of androgen receptor (P10275 whole entry, species assumed): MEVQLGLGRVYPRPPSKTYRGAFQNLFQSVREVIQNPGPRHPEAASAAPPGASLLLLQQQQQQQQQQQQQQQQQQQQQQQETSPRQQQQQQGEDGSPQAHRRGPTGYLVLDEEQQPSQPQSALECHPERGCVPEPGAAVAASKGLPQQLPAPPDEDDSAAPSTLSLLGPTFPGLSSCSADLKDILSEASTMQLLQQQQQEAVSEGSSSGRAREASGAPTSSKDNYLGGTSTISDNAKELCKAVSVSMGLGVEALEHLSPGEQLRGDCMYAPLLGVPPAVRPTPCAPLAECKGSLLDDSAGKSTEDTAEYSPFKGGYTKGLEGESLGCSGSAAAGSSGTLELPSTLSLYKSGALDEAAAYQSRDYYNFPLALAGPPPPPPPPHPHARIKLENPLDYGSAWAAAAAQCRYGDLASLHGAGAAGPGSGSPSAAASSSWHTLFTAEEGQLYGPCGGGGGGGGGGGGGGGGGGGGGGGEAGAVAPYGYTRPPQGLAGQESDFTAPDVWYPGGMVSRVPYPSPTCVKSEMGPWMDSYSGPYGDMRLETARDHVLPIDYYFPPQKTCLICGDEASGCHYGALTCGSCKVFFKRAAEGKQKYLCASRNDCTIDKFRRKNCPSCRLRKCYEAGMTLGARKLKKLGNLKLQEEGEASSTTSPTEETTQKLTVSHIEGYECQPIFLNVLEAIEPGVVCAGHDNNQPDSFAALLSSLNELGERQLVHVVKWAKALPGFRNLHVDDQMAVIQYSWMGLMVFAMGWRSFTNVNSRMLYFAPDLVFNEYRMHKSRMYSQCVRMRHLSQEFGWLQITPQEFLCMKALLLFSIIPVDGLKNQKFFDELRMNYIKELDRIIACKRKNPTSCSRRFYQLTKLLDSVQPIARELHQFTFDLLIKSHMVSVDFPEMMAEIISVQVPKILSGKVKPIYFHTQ

[2] = other protocols: degree of sulfation and glucuronidation
female SJL mice, EAE = experiment: experimental autoimmune encephalomyelitis (EAE), PLP-induced, Example 23; format: in vivo, mouse; conditions: 0.1 mg q.d. po from clinical onset
[3] = metabolic stability in liver microsomes: mouse; conditions: 10 min
Procedure: (§1) The protocol was performed as follows. […] (2) Set up samples as follows. […] (4) The internal standard/acetonitrile solution.

CaCo-2 cell monolayer = experiment: drug absorption with CaCo-2 cells; format: in vitro ADME, human
Procedure: Measurement of drug absorption with CaCo-2 cells. This protocol was used to measure the influx of compounds across a CaCo-2 cell monolayer. […] This cell line is used to study the rate at which various compounds cross the cell monolayer. […] This can provide information about a compound's potential to be orally bioavailable.
In this protocol, the cells were maintained in medium at 37° C., using 100 μL per well of warm medium in a sterile 50 ml tube. The cells were grown on sterile 24-well plates with 600 μL of differentiation medium per well. The wells contained a transwell insert to allow two compartments per well. […]
After differentiation medium reached room temperature, about 20 mL was poured into a small beaker. […] Each well was measured by the probe by inserting the probe into the well without touching the cell monolayer; press the TEST button when the probe is close to the medium surface and the reading will go from 0000 to a number when the probe touches the surface; a reading >1000Ω was acceptable. […]
20 μL of the 3α,7β,16α,17β-tetrahydroxyandrost-5-ene internal standard was added to each tube and 1500 μL of methyl-t-butyl ether was added to each tube. […] The methyl-t-butyl ether was then evaporated under nitrogen and reconstituted in 120 μL acetonitrile/water (35:65) and analyzed by LCMS.

[4] = metabolic stability in liver microsomes: human
Procedure: as §1

[5] = test system: C57/BL6 mice, LPS-induced acute lung inflammation; experiment: LPS-induced lung injury, BAL and lung MPO, Example 11; format: in vivo, mouse; conditions: 40 mg/Kg orally; 48 h after LPS
[6] = test system: estrogen receptor-s or estrogen receptor-s; experiment: interaction with estrogen receptors
[7] = test system: gerbils, cerebral ischemic stroke; experiment: acute cerebral ischemic stroke by bilateral carotid occlusion; format: in vivo, gerbil; conditions: stroke treated
From the text: Treatment of neuron loss associated with trauma and osteoporosis or bone loss conditions. Immune competence is a complex function that can be acutely impaired following trauma-induced elevations in endogenous glucocorticoid (GC) levels. The compound 5-androstene-3β,7β,17β-triol administered parenterally was used to preserve these immune function by exerting a trophic or anabolic activity. […] Thus, the measured food-searching latency period in each group was 6.9±0.9 seconds (sec) for sham, 46.9±13.6 sec for stroke alone and 14.8±4.8 sec for stroke treated with 5-androstene-3β,7β,17β-triol. Concomitantly, the stroke-induced loss in CA1 hippocampal neuron count was markedly abrogated by 5-androstene-3β,7β,17β-triol (sham=362,247±6,839; stroke=152,354±11,575; and stroke+5-androstene-3β,7β,17β-triol=207,854±47,334).

PPARα mRNA = experiment: liver mRNA by RT-PCR in rats fed compound in chow: PPARα; format: in vivo, rat; conditions: 0.45% wt/wt in chow for 6 days; control 100%
From the text: (§2) Rats were fed ad libum with a standard laboratory chow that contained 0.45% wt/wt of androst-5-ene-3β,7β,17β-triol for 6 days, followed by analysis of liver tissue on day 6 for levels of phosphoenolpyruvate carboxykinase (“PEPCK”) and 11β-hydroxysteroid dehydrogenase (“11β-HSD”) in the liver. Control animals were fed normal chow and livers were examined on day 6 for PEPCK and 11β-HSD levels by measurement of messenger RNAs (mRNAs) by RT-PCR. Both control and treated animals had free access to water. […] Levels of PPARα mRNA in these animals were not affected by feeding with androst-5-ene-3β,7β,17β-triol.

[8] = test system: male Wistar rats, DNBS colitis; experiment: DNBS induced distal colitis; format: in vivo, rat; conditions: s.c. once a day for 6 days, 0.2 or 2.0 mg/animal/day; 25-30% decrease considered significant
Procedure: Treatment of gastrointestinal inflammation. The capacity of formula 1 compounds to limit or inhibit inflammation or symptoms of inflammation was shown using an animal model for inflammatory bowel disease. Groups of 3 male Wistar rats (180±20 grams) fasted for 24 hours before 2,4-dinitrobenzene sulfonic acid (DNBS) or saline challenge were used. Distal colitis was induced by intra-colonic instillation of 0.5 mL of an ethanolic solution of DNBS (30 mg in 0.5 mL of a 30% ethanol in saline solution) after which 2 mL of air was injected through the cannula to ensure that the solution remained in the colon. The volume used was 0.1 mL per injection of 2 and 20 mg/mL of compound such as androst-5-ene-3β,7β,17β-triol in a liquid formulation, which was administered by subcutaneous injection once a day for 6 days (0.2 mg/animal/day or 2.0 mg/animal/day). The formulation contained 100 mg/mL of compound in a non-aqueous suspension, e.g., 2% benzyl alcohol w/v, 0.1% Brij 96 w/v and equal volumes of PEG 300 and propylene glycol. Concentrations of 2 mg/mL and 20 mg/mL were obtained by diluting the […] with vehicle that lacked compound.
The first dose was given 30 minutes after DNBS challenge. […] The presence of diarrhea was recorded daily by examining the anal area. […] Before removal of the colon, signs of adhesion between the colon and other organs are recorded. […]

[9] = test system: thermally-injured mice (20% total body surface area); experiment: bone loss in thermally-injured mice; format: in vivo, mouse
From the text: In bone loss conditions, 5-androstene-3β,7β,17β-triol affected the principal bone structures, i.e., cortical and trabecular layers and the growth plate. […] We observed partial protection against loss of bone mineral content as measured by dual X-ray absorptiometry.

[10] = test system: rats hemorrhaged to mean arterial pressure of about 35-40 mmHg; experiment: reduced blood pressure hemorrhagic trauma protocol; format: in vivo, rat; conditions: one s.c. injection 40 mg/kg; n=7; untreated group 75%
Procedure: A reduced blood pressure hemorrhagic trauma protocol was also conducted as a second model of hemorrhagic trauma. In this protocol, 15 rats were hemorrhaged described above to a mean arterial pressure of about 35-40 mmHg and resuscitated one hour from onset of the hemorrhage with crystalloid and PRBCs. Seven […] subcutaneous injection of androst-5-ene-3β,7β,17β-triol in a methyl cellulose suspension at a concentration of 40 mg/kg body weight in 100 μL/kg body weight, one hour after initiation of hemorrhage, but before fluid resuscitation. Eight animals received subcutaneous methyl cellulose control injection at 100 μL/kg body weight. Two days after induction of hemorrhage, mortality in the untreated group (n=8) was 75%.

11β-HSD1 mRNA = experiment: liver mRNA by RT-PCR in rats fed compound in chow: 11β-HSD1; format: in vivo, rat; conditions: 0.45% wt/wt in chow for 6 days; control 100%
From the text: as §2

PEPCK mRNA = experiment: liver mRNA by RT-PCR in rats fed compound in chow: PEPCK; format: in vivo, rat; conditions: 0.45% wt/wt in chow for 6 days; control 100%
From the text: as §2

[11] = test system: rats, trauma and hemorrhage; experiment: rat model of hemorrhagic trauma, 40% loss of total blood volume; format: in vivo; conditions: one s.c. injection 40 mg/kg one hour after initiation of hemorrhage; n=12
Procedure: The effect of treatment in a rat model of hemorrhagic trauma was examined. Twenty-four rats were subjected to 40% loss of total blood volume, consisting of catheterization and laparotomy (soft tissue injury) to mimic trauma and hemorrhage. One hour after onset of hemorrhage, the animals were resuscitated with crystalloid fluid and packed red blood cells (PRBCs). […] Twelve animals received subcutaneous methyl cellulose control injection at 100 μL/kg body weight.

C[C@]12CC[C@H]3[C@@H]([C@@H](O)C=C4C[C@@H](O)CC[C@@]43C)[C@@H]1C[C@@H](O)[C@@H]2O [androst-5-ene-3β,7β,16α,17β-tetrol]
augmenting muscle glucose uptake in the gastrocnemius muscle ([1]; ^14C-2-deoxyglucose, p<0.05): more effective | glucose infusion rate compared to the vehicle control ([1]; oral gavage 14 days, insulin 10 mU/kg/min): increased the glucose infusion rate | osteoprotegerin levels in the presence of 30 nM dexamethasone (MG-63 cells): normal osteoprotegerin levels | interaction with androgen receptor (androgen receptor): do not interact | degree of sulfation and degree of glucuronidation compared to diols [2]: low | course of EAE compared to vehicle-treated mice (female SJL mice, EAE): significantly improved course of EAE | parent remaining mouse microsomes [3]: 100% (10 min) | permeability in the CaCo-2 cell line (CaCo-2 cell monolayer): not highly permeable | parent remaining human microsomes ([4]; 10 min): 100% (10 min) | level of IL-6 in BAL compared to vehicle treated animals [5]: reduced levels | level of MPO compared to vehicle treated animals [5]: reduced levels | level of TNFα in BAL compared to vehicle treated animals [5]: reduced levels | interaction with estrogen receptor-s or estrogen receptor-s [6]: do not interact

C[C@]12CC[C@H]3[C@@H]([C@@H](O)C=C4C[C@@H](O)CC[C@@]43C)[C@@H]1CC[C@@H]2O [androst-5-ene-3β,7β,17β-triol]
food-searching latency period ([7]; sham 6.9±0.9, stroke alone 46.9±13.6): 14.8 ± 4.8 s | CA1 hippocampal neuron count ([7]; sham 362,247±6,839, stroke 152,354±11,575): 207,854±47,334 | PPARα mRNA (PPARα mRNA): 105% | decrease in net colon-to-body weight ratio [8]: 15-20% | parent remaining mouse microsomes [3]: 89% (10 min) | parent remaining human microsomes ([4]; 90 min): 86% (90 min) | femur ash weight versus vehicle-treated burned mice [9]: significantly (p<0.01) greater | loss of cortical (femur) and trabecular/cancellous (tibia) bone mass and suppression of chondrocyte proliferation in growth plate [9]: significantly (p<0.01) prevented | mortality rate two days after induction of hemorrhage [10]: 43% | 11β-HSD1 mRNA (11β-HSD1 mRNA): 45% | PEPCK mRNA (PEPCK mRNA): 30% | survival rate three days after induction of hemorrhage [11]: 100%
